Data as given in patent US20240401154A1, “SYNTHESIS AND PREPARATION OF ULTRA-LOW VISCOSITY AND HIGH MAGNETIC SUSCEPTIBILITY MAGNETIC IONIC LIQUIDS” (priority 2023, published 2024).
Where two headings read alike, the source gives them in different places. Marks after values point to notes of the source that are not given here.

Tests used:
[1] = previously studied MILs, Table 2, cited from earlier work
[2] = SQUID magnetometer; previously studied MILs, Table 2; cited from earlier work
[3] = previously referenced MILs, cited from earlier work
[4] = GC-FID; previously referenced MILs; cited from earlier work
[5] = Magnetic properties by SQUID magnetometer; format: physicochemical; conditions: applied magnetic field H=20 kOe; Curie-Weiss fit
Protocol: Magnetic properties were analyzed using a magnetic susceptibility balance (MSB, Sherwood Scientific, Cambridge, UK) and a Quantum Design Superconducting Quantum Interference Device (SQUID) magnetometer (MPMS XL-7). The magnetic properties of transition metal MILs were further studied using a SQUID magnetometer to confirm their paramagnetic nature as well as if any magnetic transition occurs in the samples.
The magnetic properties of transition metal MILs were further studied using a SQUID magnetometer to confirm their paramagnetic nature as well as if any magnetic transition occurs in the samples.
The calculated μeff of 5.21μB for the [Ni(C6-DGE)6][Ni(hfacac)3]2 MIL (FIG. 12A) from SQUID matches quite well with the theoretical μtheo value (5.31μB, TABLE 1) and also with that obtained from MSB measurements (5.48μB).

[6] = acetone, chloroform, dichloromethane, acetonitrile, methanol, ethanol, diethyl ether, ethyl acetate, isopropanol at 20% (w/v)
[7] = hexane, heptane, benzene, toluene at 10% (w/v)
[8] = hexane, heptane, benzene, toluene at 20% (w/v)

CCCCCCCCN(CCCCCCCC)C(=O)COCC(=O)N(CCCCCCCC)CCCCCCCC.CCCCCCCCN(CCCCCCCC)C(=O)COCC(=O)N(CCCCCCCC)CCCCCCCC.O=C(C=C([O-])C(F)(F)F)C(F)(F)F.O=C(C=C([O-])C(F)(F)F)C(F)(F)F.O=C(C=C([O-])C(F)(F)F)C(F)(F)F.O=C(C=C([O-])C(F)(F)F)C(F)(F)F.O=C(C=C([O-])C(F)(F)F)C(F)(F)F.O=C(C=C([O-])C(F)(F)F)C(F)(F)F.[Ni+2].[Ni+2].[Ni+2] [[Ni(TODGA)2][Ni(hfacac)3]2]
Viscosity ([1]; reported at 19.9° C.): 33,830^e
Effective magnetic moment [2]: 11.79^f
Solubility [3, 6]: S^b (soluble in acetone, chloroform, dichloromethane, acetonitrile, methanol, ethanol, diethyl ether, ethyl acetate, and isopropanol at 20% (w/v).)
Solubility [3, 7]: S^a (soluble in hexane, heptane, benzene, and toluene at 10% (w/v).)
Solubility ([3]; water at 0.01% (w/v)): S^f (insoluble in water at 0.01% (w/v).)
Onset of MIL volatilization (° C.)^1 [4]: 235 °C

CCCCCCCCN(CCCCCCCC)C(=O)COCC(=O)N(CCCCCCCC)CCCCCCCC.CCCCCCCCN(CCCCCCCC)C(=O)COCC(=O)N(CCCCCCCC)CCCCCCCC.O=C(C=C([O-])C(F)(F)F)C(F)(F)F.O=C(C=C([O-])C(F)(F)F)C(F)(F)F.O=C(C=C([O-])C(F)(F)F)C(F)(F)F.O=C(C=C([O-])C(F)(F)F)C(F)(F)F.O=C(C=C([O-])C(F)(F)F)C(F)(F)F.O=C(C=C([O-])C(F)(F)F)C(F)(F)F.[Co+2].[Co+2].[Co+2] [[Co(TODGA)2][Co(hfacac)3]2]
Viscosity ([1]; reported at 19.9° C.): 28,310^e
Effective magnetic moment [2]: 13.34^f
Solubility [3, 6]: S^b (soluble in acetone, chloroform, dichloromethane, acetonitrile, methanol, ethanol, diethyl ether, ethyl acetate, and isopropanol at 20% (w/v).)
Solubility [3, 7]: S^a (soluble in hexane, heptane, benzene, and toluene at 10% (w/v).)
Solubility ([3]; water at 0.01% (w/v)): S^f (insoluble in water at 0.01% (w/v).)
Onset of MIL volatilization (° C.)^1 [4]: 231 °C

CCCCCCOC(=O)COCC(=O)OCCCCCC.CCCCCCOC(=O)COCC(=O)OCCCCCC.CCCCCCOC(=O)COCC(=O)OCCCCCC.CCCCCCOC(=O)COCC(=O)OCCCCCC.CCCCCCOC(=O)COCC(=O)OCCCCCC.CCCCCCOC(=O)COCC(=O)OCCCCCC.O=C(C=C([O-])C(F)(F)F)C(F)(F)F.O=C(C=C([O-])C(F)(F)F)C(F)(F)F.O=C(C=C([O-])C(F)(F)F)C(F)(F)F.O=C(C=C([O-])C(F)(F)F)C(F)(F)F.O=C(C=C([O-])C(F)(F)F)C(F)(F)F.O=C(C=C([O-])C(F)(F)F)C(F)(F)F.[Mn+2].[Mn+2].[Mn+2] [MIL 3]
μeff from SQUID [5]: 8.31 μB

CCCCCCCCCCCCCC[P+](CCCCCC)(CCCCCC)CCCCCC.O=C(C=C([O-])C(F)(F)F)C(F)(F)F.O=C(C=C([O-])C(F)(F)F)C(F)(F)F.O=C(C=C([O-])C(F)(F)F)C(F)(F)F.[Mn+2] [[P66614][Mn(hfacac)3]]
Viscosity ([1]; reported at 23.7° C.): 401.8^c
Effective magnetic moment [2]: 5.80^f
Solubility [3, 6]: S^b (soluble in acetone, chloroform, dichloromethane, acetonitrile, methanol, ethanol, diethyl ether, ethyl acetate, and isopropanol at 20% (w/v).)
Solubility [3, 7]: S^a (soluble in hexane, heptane, benzene, and toluene at 10% (w/v).)
Solubility ([3]; water at 0.01% (w/v)): S^f (insoluble in water at 0.01% (w/v).)
Onset of MIL volatilization (° C.)^1 [4]: 155 °C

CCCCCCCCN(CCCCCCCC)C(=O)COCC(=O)N(CCCCCCCC)CCCCCCCC.CCCCCCCCN(CCCCCCCC)C(=O)COCC(=O)N(CCCCCCCC)CCCCCCCC.CCCCCCCCN(CCCCCCCC)C(=O)COCC(=O)N(CCCCCCCC)CCCCCCCC.O=C(C=C([O-])C(F)(F)F)C(F)(F)F.O=C(C=C([O-])C(F)(F)F)C(F)(F)F.O=C(C=C([O-])C(F)(F)F)C(F)(F)F.O=C(C=C([O-])C(F)(F)F)C(F)(F)F.O=C(C=C([O-])C(F)(F)F)C(F)(F)F.O=C(C=C([O-])C(F)(F)F)C(F)(F)F.O=C(C=C([O-])C(F)(F)F)C(F)(F)F.O=C(C=C([O-])C(F)(F)F)C(F)(F)F.O=C(C=C([O-])C(F)(F)F)C(F)(F)F.O=C(C=C([O-])C(F)(F)F)C(F)(F)F.O=C(C=C([O-])C(F)(F)F)C(F)(F)F.O=C(C=C([O-])C(F)(F)F)C(F)(F)F.[Ho+3].[Ho+3].[Ho+3].[Ho+3] [[Ho(TODGA)3][Ho(hfacac)4]3]
Viscosity ([1]; reported at 19.9° C.): 10,530^e
Effective magnetic moment [2]: 20.86^f
Solubility [3, 6]: S^b (soluble in acetone, chloroform, dichloromethane, acetonitrile, methanol, ethanol, diethyl ether, ethyl acetate, and isopropanol at 20% (w/v).)
Solubility [3, 7]: S^a (soluble in hexane, heptane, benzene, and toluene at 10% (w/v).)
Solubility [3, 8]: S^c (soluble in hexane, heptane, benzene, and toluene at 20% (w/v).)
Solubility ([3]; water at 0.01% (w/v)): S^f (insoluble in water at 0.01% (w/v).)
Onset of MIL volatilization (° C.)^1 [4]: 192 °C

CCCCCCCCCCCCCC[P+](CCCCCC)(CCCCCC)CCCCCC.O=C(C=C([O-])C(F)(F)F)C(F)(F)F.O=C(C=C([O-])C(F)(F)F)C(F)(F)F.O=C(C=C([O-])C(F)(F)F)C(F)(F)F.[Ni+2] [[P66614][Ni(hfacac)3]]
Viscosity ([1]; reported at 23.7° C.): 927.9^c
Effective magnetic moment [2]: 2.80^f
Solubility [3, 6]: S^b (soluble in acetone, chloroform, dichloromethane, acetonitrile, methanol, ethanol, diethyl ether, ethyl acetate, and isopropanol at 20% (w/v).)
Solubility [3, 7]: S^a (soluble in hexane, heptane, benzene, and toluene at 10% (w/v).)
Solubility ([3]; water at 0.01% (w/v)): S^f (insoluble in water at 0.01% (w/v).)
Onset of MIL volatilization (° C.)^1 [4]: 225 °C

CCCCCCCCN(CCCCCCCC)C(=O)COCC(=O)N(CCCCCCCC)CCCCCCCC.CCCCCCCCN(CCCCCCCC)C(=O)COCC(=O)N(CCCCCCCC)CCCCCCCC.CCCCCCCCN(CCCCCCCC)C(=O)COCC(=O)N(CCCCCCCC)CCCCCCCC.O=C(C=C([O-])C(F)(F)F)C(F)(F)F.O=C(C=C([O-])C(F)(F)F)C(F)(F)F.O=C(C=C([O-])C(F)(F)F)C(F)(F)F.O=C(C=C([O-])C(F)(F)F)C(F)(F)F.O=C(C=C([O-])C(F)(F)F)C(F)(F)F.O=C(C=C([O-])C(F)(F)F)C(F)(F)F.O=C(C=C([O-])C(F)(F)F)C(F)(F)F.O=C(C=C([O-])C(F)(F)F)C(F)(F)F.O=C(C=C([O-])C(F)(F)F)C(F)(F)F.O=C(C=C([O-])C(F)(F)F)C(F)(F)F.O=C(C=C([O-])C(F)(F)F)C(F)(F)F.O=C(C=C([O-])C(F)(F)F)C(F)(F)F.[Dy+3].[Dy+3].[Dy+3].[Dy+3] [[Dy(TODGA)3][Dy(hfacac)4]3]
Viscosity ([1]; reported at 19.9° C.): 9,210^e
Effective magnetic moment [2]: 20.00^f
Solubility [3, 6]: S^b (soluble in acetone, chloroform, dichloromethane, acetonitrile, methanol, ethanol, diethyl ether, ethyl acetate, and isopropanol at 20% (w/v).)
Solubility [3, 7]: S^a (soluble in hexane, heptane, benzene, and toluene at 10% (w/v).)
Solubility [3, 8]: S^c (soluble in hexane, heptane, benzene, and toluene at 20% (w/v).)
Solubility ([3]; water at 0.01% (w/v)): S^f (insoluble in water at 0.01% (w/v).)
Onset of MIL volatilization (° C.)^1 [4]: 175 °C

CCCCCCCCCCCCCC[P+](CCCCCC)(CCCCCC)CCCCCC.O=C(C=C([O-])C(F)(F)F)C(F)(F)F.O=C(C=C([O-])C(F)(F)F)C(F)(F)F.O=C(C=C([O-])C(F)(F)F)C(F)(F)F.[Co+2] [[P66614][Co(hfacac)3]]
Viscosity ([1]; reported at 23.7° C.): 575.8^c
Effective magnetic moment [2]: 4.30^f
Solubility [3, 6]: S^b (soluble in acetone, chloroform, dichloromethane, acetonitrile, methanol, ethanol, diethyl ether, ethyl acetate, and isopropanol at 20% (w/v).)
Solubility [3, 7]: S^a (soluble in hexane, heptane, benzene, and toluene at 10% (w/v).)
Solubility ([3]; water at 0.01% (w/v)): S^f (insoluble in water at 0.01% (w/v).)
Onset of MIL volatilization (° C.)^1 [4]: 130 °C

CCCCCCCCN(CCCCCCCC)C(=O)COCC(=O)N(CCCCCCCC)CCCCCCCC.CCCCCCCCN(CCCCCCCC)C(=O)COCC(=O)N(CCCCCCCC)CCCCCCCC.CCCCCCCCN(CCCCCCCC)C(=O)COCC(=O)N(CCCCCCCC)CCCCCCCC.O=C(C=C([O-])C(F)(F)F)C(F)(F)F.O=C(C=C([O-])C(F)(F)F)C(F)(F)F.O=C(C=C([O-])C(F)(F)F)C(F)(F)F.O=C(C=C([O-])C(F)(F)F)C(F)(F)F.O=C(C=C([O-])C(F)(F)F)C(F)(F)F.O=C(C=C([O-])C(F)(F)F)C(F)(F)F.O=C(C=C([O-])C(F)(F)F)C(F)(F)F.O=C(C=C([O-])C(F)(F)F)C(F)(F)F.O=C(C=C([O-])C(F)(F)F)C(F)(F)F.O=C(C=C([O-])C(F)(F)F)C(F)(F)F.O=C(C=C([O-])C(F)(F)F)C(F)(F)F.O=C(C=C([O-])C(F)(F)F)C(F)(F)F.[Gd+3].[Gd+3].[Gd+3].[Gd+3] [[Gd(TODGA)3][Gd(hfacac)4]3]
Viscosity ([1]; reported at 19.9° C.): 13,640^e
Effective magnetic moment [2]: 14.90^f
Solubility [3, 6]: S^b (soluble in acetone, chloroform, dichloromethane, acetonitrile, methanol, ethanol, diethyl ether, ethyl acetate, and isopropanol at 20% (w/v).)
Solubility [3, 7]: S^a (soluble in hexane, heptane, benzene, and toluene at 10% (w/v).)
Solubility [3, 8]: S^c (soluble in hexane, heptane, benzene, and toluene at 20% (w/v).)
Solubility ([3]; water at 0.01% (w/v)): S^f (insoluble in water at 0.01% (w/v).)
Onset of MIL volatilization (° C.)^1 [4]: 183 °C

CCCCCCCCCCCCCC[P+](CCCCCC)(CCCCCC)CCCCCC.CCCCCCCCCCCCCC[P+](CCCCCC)(CCCCCC)CCCCCC.[Cl-].[Cl-].[Cl-].[Cl-].[Co+2] [[P66614]2[CoCl4]]
Viscosity ([1]; reported at 20.0° C.): 123,500^d
Effective magnetic moment [2]: 4.45^f
